Patent US9102636B2, “Analgesic compounds, compositions, and uses thereof” (Galleon Pharmaceuticals, Inc., priority 2010, dated 2015)
“And” between values parts separate entries of the source, which are not always exact repeats. Identical values can stand only once. “Also recorded” adds a separate entry of the source.

Assays:
[1] = L-012 assay: inhibition of SIN-1 generated peroxynitrite induced luminescence/fluorescence of L-012; type: biochemical; conditions: 15 minute time point; average of three plates
Procedure: Luminol like compound “L-012” is a chemilumescent probe that is activated by the presence of a ROS and/or RNS such as peroxynitrite. In this assay L-012 was oxidized by the addition of 3-Morpholino-sydnonimine (“SIN-1”), a known peroxynitrite generator. The emitted fluorescence was directly proportional to the concentration of SIN-1. The compounds of the invention were then assessed for their ability to scavenge peroxynitrite by blocking the increase of peroxynitrite induced fluorescence. Concentrations of compound producing 50% inhibition of the fluorescence signal (IC50 values) were calculated by testing the compounds of the invention at various concentrations and averaging the IC50 of three plates.
The following solutions were added to white polystyrene, non-sterile 96-well plate (Costar #3912): 196 μL of 50 μM L-012; 2 μL of the test compound; and 24 μL of 500 mM SIN-1. Fresh stock of 50 μM L-012 in PBS pH 7.4 was made for each 96 well plate that was analyzed. The plates were read in a FlexStation3 (Molecular Devices) using the luminescent mode at 37° C. for 30 min, with a measurement every 30 seconds and an integration time of 100 msec.
Luminescence signal was recorded by the FlexStation3 kinetically at 37° C. for 30 minutes, with a measurement every 30 seconds and an integration time of 100 msec. The data in rows A and H were dropped from each plate to exclude the possibility of an ‘edge effect’. Thus, each test compound had 3 replicates per plate.

[2] = test system: FCA induced tactile allodynia; assay: FCA induced tactile allodynia (electronic von Frey); type: in vivo, rat
Procedure: (§1) Compound 2 was evaluated in the rat Freund's complete adjuvant (FCA) model of inflammatory pain. The rat Freund's complete adjuvant (FCA) intraplantar model of inflammatory pain produces behaviors similar to those observed in patients and has been widely used to assess novel pharmacological treatments (Lam et al., 2008, J Ethnopharmacol. 120:44-50). The positive control was celecoxib (TRC, Montreal), and the negative control was vehicle (0.5% methyl cellulose, in phosphate buffered saline). […] The Hargreaves apparatus was obtained from Ugo Basile, Italy. The Freund's complete adjuvant was obtained from Sigma, St. Louis, and the electronic von frey was obtained from Stoelting, Ill. For this assay, paw withdrawal latency to a thermal stimulus was assessed using a radiant heat source (Ugo Basile, Italy) aimed at the plantar surface of the left hind paw (Hargreaves test; […] Paw withdrawal thresholds to a non-noxious tactile stimulus was assessed using an electronic von Frey apparatus that presented an increasing mechanical force to the plantar surface of the hind paw. Paw volume was measured by displacement of water and assuming a tissue density equal to that of water. […] Celecoxib (30 mg/kg p.o.) served as the positive control. […] After induction of anesthesia, the injection site was prepared in a sterile manner and 100 μl of a 50% suspension of FCA injected. After injection, animals were weighed and allowed to recover before being returned to their home cages. Statistical significance was determined on untransformed data using a two-way analysis of variance (Graphpad Prism, NC). Significant main effects were analyzed further by subsequent Bonferronni post-hoc test. The level of significance was set at p<0.05. Data are shown as mean±S.E.M. (with an asterisk to denote significance as compared to vehicle treated controls).

[3] = test system: FCA induced edema; assay: FCA induced edema (paw volume); type: in vivo, rat
Procedure: as §1

[4] = test system: spinal nerve ligation induced tactile allodynia; assay: Spinal nerve ligation (SNL, Chung model) induced tactile allodynia (von Frey filaments); type: in vivo, rat; conditions: for Paw withdrawal threshold: FIG. 24, fasted; for Paw withdrawal threshold / Paw threshold: individual animals; for Paw threshold: FIG. 25, gabapentin (positive control, 100 mg/kg i.p.)
[5] = test system: ataxia (rotarod); assay: Accelerating rotarod assay of ataxia (latency to fall); type: in vivo, rat; conditions: for Latency to fall: Haloperidol 3 mg/kg p.o., maximum 300 seconds, individual animals
Procedure: Compound 2 was evaluated in a rat accelerating rotarod model of ataxia. Ataxia is a common clinical problem with CNS-active compounds and can often confound interpretation of efficacy in preclinical pain models. The rotarod assay of ataxia has been widely used to assess the side-effect liability of novel pharmacological treatments (Jones & Roberts, 1968, J. Pharm. […] The positive control was haloperidol (Sigma, St. […] Male Sprague-Dawley Rats (Harlan, Ill.) were 250-300 g at time of dosing. Rotarod was obtained from IITC, CA. To examine the potential effects of Compound 2 on motor performance, rats were tested on an accelerating rotarod (IITC, Ca). […] Rats received two timed training trials (averaged to give the reported baseline) on the first day, then 24 hr later rats were administered Compound 2 (30, 100 and 300 mg/kg, p.o.), haloperidol (3 mg/kg, p.o.), the positive control, or vehicle. […] Statistical significance was determined on untransformed data using a two-way analysis of variance (Graphpad Prism, NC). Significant main effects were analyzed further by subsequent Bonferronni post-hoc test. The level of significance was set at p<0.05. Data are shown as mean±S.E.M. (with an asterisk to denote significance as compared to vehicle treated controls).

CC1(C)SC(Nc2ccccc2O)=N[C@H]1C(=O)O [Compound 1, (S)-2-(2-hydroxyphenylamino)-thiazoline-5,5-dimethyl-4-carboxylic acid]
IC50 [1]: 0.27 µM

COC(=O)[C@@H]1N=C(Nc2cc(Cl)ccc2O)SC1(C)C [Compound 20, (S)-2-(2-Hydroxy-5-chlorophenylamino)-thiazoline-5,5-dimethyl-4-carboxylic acid methyl ester]
IC50 [1]: 0.55 µM

CC1(C)SC(Nc2cc(Cl)ccc2O)=N[C@H]1C(=O)O [Compound 21, (S)-2-(2-Hydroxy-5-chlorophenylamino)-thiazoline-5,5-dimethyl-4-carboxylic acid]
IC50 [1]: 0.26 µM

Cc1ccc(O)c(NC2=N[C@@H](C(=O)O)C(C)(C)S2)c1 [Compound 24, (S)-2-(2-Hydroxy-5-methylphenylamino)-thiazoline-5,5-dimethyl-4-carboxylic acid]
IC50 [1]: 0.54 µM

COc1ccc(NC2=N[C@@H](C(=O)O)C(C)(C)S2)c(O)c1 [Compound 26, (S)-2-(2-Hydroxy-4-methoxyphenylamino)-thiazoline-5,5-dimethyl-4-carboxylic acid]
IC50 [1]: 0.14 µM

COC(=O)[C@@H]1N=C(Nc2ccc(OC)cc2O)SC1(C)C [Compound 27, (S)-2-(2-Hydroxy-4-methoxyphenylamino)-thiazoline-5,5-dimethyl-4-carboxylic acid methyl ester]
IC50 [1]: 0.3 µM

Cc1ccc(-c2cc(C(F)(F)F)nn2-c2ccc(S(N)(=O)=O)cc2)cc1 [celecoxib, reference compound]
Paw withdrawl threshold ([2]; 60 (min post-dose), celecoxib 30 mg/kg p.o. 24 hours post-FCA): 29.9 g and 32.4 g and 19.8 g and 23.2 g and 30.9 g
Paw withdrawl threshold ([2]; baseline (pre-FCA), celecoxib 30 mg/kg group, individual rats): 31.8 g (2×) and 39.4 g and 25.93 g and 36.6 g and 37.73 g
Paw volume ([3]; 24 hrs post, Celecoxib (30 mg/kg p.o.), FIG. 20A): 2.8 mL and 3.1 mL and 2.7 mL and 3 mL and 2.2 mL
Paw volume ([3]; 48 hrs post, Celecoxib (30 mg/kg p.o.), FIG. 20A): 2.7 mL and 2.8 mL and 2.2 mL
Paw volume ([3]; FCA/celecoxib, 30 mg/kg p.o., 1 hr (D2), individual animals, 30 mg/kg): 2.3 mL (2×) and 2.6 mL and 2.4 mL (2×) and 2.7 mL (2×) and 2.5 mL
Paw volume ([3]; FCA/celecoxib, 30 mg/kg p.o., 1 hr, individual animals, 30 mg/kg): 2.7 mL (3×) and 2.9 mL and 2.6 mL and 3.1 mL and 3 mL (2×)
Paw volume ([3]; FCA/celecoxib, 30 mg/kg p.o., 3 hrs (D2), individual animals, 30 mg/kg): 2.4 mL and 2.5 mL (2×) and 2.3 mL (2×) and 2.7 mL and 2.6 mL and 2.8 mL
Paw volume ([3]; FCA/celecoxib, 30 mg/kg p.o., 3 hrs, individual animals, 30 mg/kg): 2.7 mL (3×) and 2.9 mL (2×) and 2.8 mL and 3.1 mL and 2.6 mL
Paw volume ([3]; FCA/celecoxib, 30 mg/kg p.o., Pre-Drug (D2), individual animals, 30 mg/kg): 2.4 mL and 2.6 mL (2×) and 2.3 mL (2×) and 2.5 mL and 2.7 mL and 2.8 mL
Paw volume ([3]; FCA/celecoxib, 30 mg/kg p.o., Pre-Drug, individual animals, 30 mg/kg): 2.8 mL (3×) and 3.1 mL (2×) and 2.9 mL and 3 mL and 3.2 mL
Paw volume ([3]; FCA/celecoxib, 30 mg/kg p.o., Pre-FCA (baseline), individual animals, 30 mg/kg): 1.7 mL (6×) and 1.8 mL and 1.9 mL
Paw volume ([3]; Pre-FCA, Celecoxib (30 mg/kg p.o.) group, individual rats, FIG. 20A): 1.8 mL and 1.9 mL (2×) and 1.7 mL (2×) and 1.5 mL

NCC1(CC(=O)O)CCCCC1 [gabapentin, reference compound]
Paw withdrawal threshold ([4]; gabapentin 100 mg/kg i.p., 3 hrs (D1)): 15 g (4×) and 5.18 g and 3.67 g and 6.58 g and 5.56 g
Paw withdrawal threshold ([4]; gabapentin 100 mg/kg i.p., 3 hrs (D3)): 15 g (3×) and 3.33 g and 11.69 g and 8.61 g and 6.58 g and 9.86 g
Paw withdrawal threshold ([4]; gabapentin 100 mg/kg i.p., 5 hrs (D1)): 10.31 g and 5.56 g and 6.58 g (2×) and 1.99 g and 6.66 g and 7.94 g and 6.4 g
Paw withdrawal threshold ([4]; gabapentin 100 mg/kg i.p., 5 hrs (D3)): 15 g (2×) and 4.4 g and 4.72 g and 2.37 g and 6.58 g and 7.31 g and 6.66 g
Paw withdrawal threshold ([4]; gabapentin 100 mg/kg i.p., Pre-Drug (D1)): 6.64 g and 1.65 g and 1.33 g and 1.56 g and 2.81 g (2×) and 4.23 g and 5.04 g
Paw withdrawal threshold ([4]; gabapentin 100 mg/kg i.p., Pre-Drug (D3)): 6.64 g and 1.56 g and 1.4 g and 1.65 g and 5.57 g and 3.55 g and 3.58 g and 2.81 g
Paw withdrawal threshold ([4]; gabapentin 100 mg/kg i.p., Pre-Sx): 15 g
Paw threshold ([4]; 1 wk, 100 mg/kg): 1.56 g (2×) and 6.58 g (2×) and 3.73 g and 2.2 g and 4.25 g and 1.4 g
Paw threshold ([4]; 2 wks, 100 mg/kg): 0.99 g and 1.31 g and 3.13 g and 1.4 g (2×) and 2.81 g (3×)
Paw threshold ([4]; Pre-Sx): 15 g
reversal of SNL tactile allodynia, positive control ([4]; rat, gabapentin 100 mg/kg i.p., 3 and 5 hours after each administration): consistently produced a statistically significant reversal of allodynia; also recorded: statistically significant reversal of hyperalgesia
development of SNL tactile allodynia, positive control dosed only on day of surgery ([4]; rat, gabapentin, FIG. 25): failed to alter the course of development of allodynia

O=C(CCCN1CCC(O)(c2ccc(Cl)cc2)CC1)c1ccc(F)cc1 [haloperidol, reference compound]
Latency to fall ([5]; Baseline): 60 s and 38 s and 42.5 s and 59 s and 68 s and 48 s and 86 s and 62 s and 71 s and 80 s and 57 s
Latency to fall ([5]; Post-Drug (1 hr)): 9 sec and 10 sec (2×) and 7 sec and 2 sec (2×) and 5 sec (2×) and 6 sec and 30 sec and 15 sec
latency to fall, accelerating rotarod, positive control ([5]; rat, haloperidol 3 mg/kg p.o., 1 h post-administration): significant motor deficits; also recorded: substantial reduction in latency
